Patent US20260256889A1, “Pharmaceutical formulations comprising a cyclodextrin” (Novo Nordisk A/S, priority 2021, published 2026)

Test: Optimal pH (chemical and physical stability across the pH range)
Assay type: physicochemical
Excerpt: (§1) The person skilled in the art can easily find the amylin receptor agonist's optimal pH by testing its chemical and physical stability, in an aqueous solution essentially consisting of the amylin receptor agonist, a buffer and water for injection, across the pH range.
as §1, with “GLP-1” for “amylin”, “range. The physical stability of the GLP-1 receptor agonist may be a reflection of its isoelectric point, which may coincide with the pH where poorest physical stability might be expected.” for “range.”

With “N^6.26-{18-[N-(17-carboxyheptadecanoyl)-L-γ-glutamyl]-10-oxo-3,6, 12, 15-tetraoxa-9,18-diazaoctadecanoyl}-[8-(2-amino-2-propanoic acid),34-L-arginine] human glucagon-like peptide 1 (7-37) [Semaglutide]” the “pH at which optimally stable” value was 7.4.
